# Measurements as given in patent US20210061859A1, “NTCP Inhibitor” (The University of Tokyo, priority 2018, published 2021).
# Like-named read-outs stand apart in the source and are kept apart here. Where a SMILES comes first, the peptide text is derived from it. Bridges are numbered along the chain shown (N, C = ends). [ ]: non-standard residue; d: D form. NMeS = CN[C@@H](CO)C(=O)O
# T1: human NTCP (Homo sapiens, UniProt Q14973)
# T1 construct: made in house; host or cells: wheat germ cell-free protein synthesis system
# T1 sequence (Q14973 1-349): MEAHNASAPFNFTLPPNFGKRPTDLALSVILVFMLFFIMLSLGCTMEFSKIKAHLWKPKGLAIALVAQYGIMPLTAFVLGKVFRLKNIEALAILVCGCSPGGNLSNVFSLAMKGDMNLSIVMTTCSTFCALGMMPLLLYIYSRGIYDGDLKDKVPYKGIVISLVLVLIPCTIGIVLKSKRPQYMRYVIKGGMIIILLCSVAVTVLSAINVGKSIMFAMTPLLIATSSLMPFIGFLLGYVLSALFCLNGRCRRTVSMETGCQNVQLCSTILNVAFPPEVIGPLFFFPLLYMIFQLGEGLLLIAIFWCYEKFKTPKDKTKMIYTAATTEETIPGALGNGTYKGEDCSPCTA
# T2: human NTCP on cells (HepG2-hNTCP-C4 cells overexpressing the human NTCP gene; primary human hepatocytes) (human), Q14973
# T2 chain: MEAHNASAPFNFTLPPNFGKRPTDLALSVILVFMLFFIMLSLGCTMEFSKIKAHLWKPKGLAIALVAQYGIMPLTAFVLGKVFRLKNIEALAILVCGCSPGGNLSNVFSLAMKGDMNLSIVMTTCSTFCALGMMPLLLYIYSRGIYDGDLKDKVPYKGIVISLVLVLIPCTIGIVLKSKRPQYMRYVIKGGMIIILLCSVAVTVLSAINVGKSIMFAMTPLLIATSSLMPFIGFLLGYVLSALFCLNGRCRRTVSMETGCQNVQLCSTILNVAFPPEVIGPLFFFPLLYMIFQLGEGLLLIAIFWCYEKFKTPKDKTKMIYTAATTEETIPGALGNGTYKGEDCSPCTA
# T3: His-tagged recombinant NTCP protein (human sodium taurocholate cotransporting polypeptide) (human), Q14973
# T3 chain: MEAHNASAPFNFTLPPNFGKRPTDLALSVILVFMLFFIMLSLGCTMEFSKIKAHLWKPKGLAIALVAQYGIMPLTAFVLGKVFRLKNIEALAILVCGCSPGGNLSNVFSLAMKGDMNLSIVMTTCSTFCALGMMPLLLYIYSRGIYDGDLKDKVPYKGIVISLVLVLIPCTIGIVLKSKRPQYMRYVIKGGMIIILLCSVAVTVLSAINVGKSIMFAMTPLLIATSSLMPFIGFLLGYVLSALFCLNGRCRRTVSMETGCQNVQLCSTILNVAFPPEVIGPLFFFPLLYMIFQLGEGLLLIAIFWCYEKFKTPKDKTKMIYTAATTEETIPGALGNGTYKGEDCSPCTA
# How the values were obtained:
# [1] = target: T1, human NTCP; test: Surface plasmon resonance binding to immobilized recombinant NTCP; conditions: single-cycle kinetics, 1:1 binding model, NTCP immobilized on NTA-Ni2+
# Experimental: (§1) FIG. 7 is a diagram showing the NTCP association constant of a peptide identified by first RaPID screening. A single-cycle reaction kinetics experiment was conducted using NTCP immobilized on surface (NTA-Ni^2+) involving varying concentrations of a cyclic peptide analyte. In each case, as shown in the drawing, the peptide was tested with 4-fold serial dilutions starting from the highest concentration of 200 or 1000 nM. A dissociation constant (KD) was determined using a 1:1 binding model.
# as §1, with “9” for “7”, “focused library” for “first”, “association constant” for “reaction kinetics”
# The association constant of each peptide for human NTCP was measured using a Biacore T200 apparatus (GE Healthcare Japan Corp.). The running buffer solution used was HBS-P+ (10 mM HEPES, 150 mM NaCl, and 0.05 vol % surfactant P20, pH 7.4) containing 0.1 vol % DMSO and 1 mM β-dodecyl-maltoside. 100 nM recombinant NTCP was immobilized on a NTA chip treated with Ni^2+ according to the manufacturer's instructions (baseline response: 1000 to 3000 refraction units). Peptides were injected as analytes at a flow rate of 60 μL/min, and association constants were modelled using a 1:1 binding model.
# [2] = test system: HBV genotype D; type: cell-based, hepatitis B virus; conditions: primary human hepatocytes; for HBs antigen in the culture supernatant: peptide at 100 μM, 12 days after inoculation
# Experimental: FIG. 2 is a diagram showing the anti-HBV effect of a peptide from initial screening. FIG. 2(a) is a schematic diagram of a HepG2-hNTCP-C4 infection experiment. HepG2-hNTCP-C4 cells were pretreated with a peptide for 2 hours and subsequently inoculated with HBV for 16 hours in the presence of the peptide. Free HBV and peptide were washed off. Then, the cells were further cultured for 12 days in the absence of the peptide, and HBV infection was evaluated on the basis of measurement of HBs antigen in the culture supernatant. The filled boxes and the broken-line boxes depict periods for which the treatment was performed and periods for which the treatment was not performed, respectively. […] HBV infection was evaluated by monitoring HBs antigen secreted into a culture supernatant on 12 days after inoculation by ELISA. In FIG. 2(c), a cell survival rate was measured by MTT assay.
# FIG. 3 is a diagram showing the anti-HBV effect of a peptide by focused library screening. […] HBV infection was evaluated by measurement of HBe antigen (a), and a cell survival rate (b) was evaluated by MTT assay as shown in FIG. 2.
# HBV genotype D used in this study (FIGS. 1 to 3) was derived from the culture supernatant of Hep38.7-Tet cells, and prepared by a known method (the method described in Tsukuda, S. et al. Dysregulation of retinoic acid receptor diminishes hepatocyte permissiveness to hepatitis B virus infection through modulation of sodium taurocholate cotransporting polypeptide (NTCP) expression. The Journal of biological chemistry 290, 5673-5684 (2015), and Ogura, N., Watashi, K., Noguchi, T. & Wakita, T. Formation of covalently closed circular DNA in Hep38.7-Tet cells, a tetracycline inducible hepatitis B virus expression cell line. Biochemical and biophysical research communications 452, 315-321 (2014)). Purified HBV (FIG. 1(d)) was prepared by ultrafiltration to remove an excess of components in FBS and medium. HBV genotypes A, B, and C and genotype C having the L180M/S202G/M204V mutations (nucleoside analog-resistant HBV) or G145R substitution (vaccine-escape HBV) (FIG. 4(d)) were prepared from the culture supernatant of HepG2 cells transfected with the corresponding expression plasmid. HBV was inoculated at 12,000 (FIGS. 1(a), 1(b), and 1(d)), 1000 to 2000 (FIG. 2(b)) or 500 (FIGS. 3(a) and 4(d)) genome equivalents (GEq)/cell in the presence of 4% polyethylene glycol 8000 (PEG8000) and incubated at 37° C. for 16 hours by a known method (the method described in Watashi, K. et al. Interleukin-1 and tumor necrosis factor-alpha trigger restriction of hepatitis B virus infection via a cytidine deaminase activation-induced cytidine deaminase (AID). The Journal of biological chemistry 288, 31715-31727 (2013)).
# HBe antigen was detected by a chemiluminescence immunoassay (CLIA) (LSI Medience Corp.). HBs antigen was quantified by enzyme-linked immunosorbent assay (ELISA) as described in a known method (the method described in Watashi, K. et al. Interleukin-1 and tumor necrosis factor-alpha trigger restriction of hepatitis B virus infection via a cytidine deaminase activation-induced cytidine deaminase (AID). The Journal of biological chemistry 288, 31715-31727 (2013)).
# Subsequently, the present inventors evaluated the effect of the 10 peptides described above on HBV infection in primary human hepatocytes. […] HBV infection was evaluated by measuring HBs antigen in the culture supernatant. […]
# [3] = test system: HepG2-hNTCP-C4 cells; conditions: HBV infection assay
# Experimental: HBs antigen secreted into a culture supernatant (a) and HBc antigen in the cells (b) were detected by ELISA and an immunofluorescence method, respectively. A cell survival rate was measured by quantifying total cellular DNA (c). […] Data is indicated by mean±SD. Statistical significance was determined by use of Student's t test as to all numbers (*P<0.05, **P<0.01, N.S.: not significant).
# [4] = target: T2, human NTCP on cells (HepG2-hNTCP-C4 …); test: cell-based or functional assay
# [5] = target: T3, His-tagged recombinant NTCP protein …; test: SPR (Biacore T200), single-cycle kinetics, His-NTCP on Ni2+-NTA chip, peptide as analyte, 1:1 model
Molecule,Kd ([1]; Kd) [nM],"50% inhibitory concentration (IC50), HBs antigen in culture supernatant, HBV infection assay [4] [nM]",Kd [5] [nM],also measured
CC[C@H](C)[C@@H]1NC(=O)[C@H](Cc2ccc(O)cc2)NC(=O)CSC[C@@H](C(=O)N[C@H](C(N)=O)[C@@H](C)O)NC(=O)[C@H](Cc2ccc(O)cc2)NC(=O)[C@H]([C@@H](C)CC)NC(=O)[C@H](C(C)C)NC(=O)[C@H](Cc2ccc(O)cc2)NC(=O)CNC(=O)[C@@H]2CCCN2C(=O)[C@H](Cc2c[nH]c3ccccc23)NC(=O)[C@H]([C@@H](C)CC)NC(=O)[C@H](Cc2c[nH]c3ccccc23)NC1=O [WL2] ({CH2CO}-YIWIWPGYVIYCT-NH2; thioether N-12),,,,"Kd ([1]; read-out: Kd): 157 nM; IC50 ([2]; purified HBV as inoculum, HBs antigen in culture supernatant, read-out: 50% inhibitory concentrations (IC50), HBs antigen): 2540 ± 110 nM; solubility: ~30 µM; cytotoxicity (cell survival rate, total cellular DNA) [3]: without marked cytotoxicity"
CC[C@H](C)[C@@H]1NC(=O)[C@H](C)NC(=O)[C@H](Cc2c[nH]c3ccccc23)NC(=O)[C@H](Cc2c[nH]c3ccccc23)NC(=O)[C@@H](Cc2ccc(O)cc2)NC(=O)CSC[C@@H](C(=O)NCC(N)=O)NC(=O)[C@@H]2CCCN2C(=O)[C@H](Cc2c[nH]c3ccccc23)NC(=O)[C@H]([C@@H](C)O)NC(=O)[C@H](Cc2ccccc2)NC(=O)[C@H](C(C)C)NC(=O)[C@H](Cc2c[nH]cn2)NC(=O)[C@H]([C@@H](C)CC)NC(=O)[C@H](Cc2c[nH]cn2)NC(=O)[C@@H]2CCCN2C(=O)[C@H](CC(N)=O)NC1=O [D2] ({CH2CO}-[dY]WWAINPHIHVFTWPCG-NH2; thioether N-16),14,,,HBs antigen in the culture supernatant [2]: most active
CC[C@H](C)[C@@H]1NC(=O)[C@@H](Cc2ccc(O)cc2)NC(=O)CSC[C@@H](C(=O)NCC(N)=O)NC(=O)[C@H](CO)NC(=O)[C@H](Cc2ccc(O)cc2)NC(=O)[C@H](CC(C)C)NC(=O)[C@H](CC(C)C)NC(=O)[C@H](Cc2ccccc2)NC(=O)[C@H](CC(C)C)NC(=O)[C@H](Cc2c[nH]cn2)NC(=O)[C@H](CC(C)C)NC(=O)[C@H](CCC(=O)O)NC(=O)[C@@H]2CCCN2C(=O)[C@H](Cc2ccc(O)cc2)NC(=O)[C@H](C(C)C)NC(=O)[C@H](CC(C)C)NC1=O [D4] ({CH2CO}-[dY]ILVYPELHLFLLYSCG-NH2; thioether N-16),2270,,,HBs antigen in the culture supernatant [2]: most active
CC[C@H](C)[C@@H]1NC(=O)[C@H](Cc2c[nH]c3ccccc23)NC(=O)[C@H](CC(C)C)NC(=O)[C@H](Cc2ccc(O)cc2)NC(=O)CSC[C@@H](C(=O)NCC(N)=O)NC(=O)CNC(=O)[C@H](CC(C)C)NC(=O)[C@H](CC(=O)O)NC(=O)[C@H](Cc2ccccc2)NC(=O)[C@H]([C@@H](C)O)NC(=O)[C@H](Cc2ccc(O)cc2)NC(=O)[C@H](Cc2c[nH]c3ccccc23)NC(=O)[C@H](CC(N)=O)NC(=O)[C@H](CCC(N)=O)NC(=O)[C@H](Cc2c[nH]cn2)NC(=O)[C@H](Cc2ccccc2)NC1=O [L3] ({CH2CO}-YLWIFHQNWYTFDLGCG-NH2; thioether N-16),13,,,
CC(C)C[C@@H]1NC(=O)[C@H](Cc2ccc(O)cc2)NC(=O)[C@H](C)NC(=O)[C@H](CO)N(C)C(=O)[C@H](Cc2c[nH]cn2)NC(=O)[C@H](Cc2c[nH]c3ccccc23)NC(=O)[C@H]([C@@H](C)O)NC(=O)[C@H](Cc2c[nH]c3ccccc23)NC(=O)[C@H]([C@@H](C)O)NC(=O)[C@H](Cc2ccc(O)cc2)NC(=O)CSC[C@@H](C(=O)N[C@H](C(N)=O)[C@@H](C)O)NC(=O)[C@H](Cc2ccccc2)NC(=O)[C@H](C(C)C)NC(=O)[C@H](Cc2ccc(O)cc2)NC1=O [WL3] ({CH2CO}-YTWTWH[NMeS]AYLYVFCT-NH2; thioether N-14),57,,,
CC(C)C[C@@H]1NC(=O)[C@H](CC(=O)O)NC(=O)[C@H](CC(C)C)NC(=O)[C@H](Cc2ccccc2)NC(=O)[C@H](Cc2c[nH]c3ccccc23)NC(=O)[C@H](CO)NC(=O)[C@H](CCCNC(=N)N)NC(=O)[C@H](CCC(=O)O)NC(=O)[C@H](C)NC(=O)[C@H](Cc2c[nH]c3ccccc23)NC(=O)[C@H](CC(C)C)NC(=O)[C@H](CC(C)C)NC(=O)[C@H](Cc2c[nH]c3ccccc23)NC(=O)[C@H](C(C)C)NC(=O)[C@H](Cc2ccc(O)cc2)NC(=O)CSC[C@@H](C(=O)NCC(N)=O)NC(=O)CNC1=O [L2] ({CH2CO}-YVWLLWAERSWFLDLGCG-NH2; thioether N-17),374,,,
CC(C)C[C@@H]1NC(=O)[C@H](Cc2ccccc2)NC(=O)[C@H](C)NC(=O)[C@H](CO)N(C)C(=O)[C@H](CC(N)=O)NC(=O)[C@H](Cc2c[nH]c3ccccc23)NC(=O)[C@H]([C@@H](C)O)NC(=O)[C@H](Cc2c[nH]c3ccccc23)NC(=O)[C@H]([C@@H](C)O)NC(=O)[C@H](Cc2ccc(O)cc2)NC(=O)CSC[C@@H](C(=O)N[C@H](C(N)=O)[C@@H](C)O)NC(=O)[C@H](Cc2ccc(O)cc2)NC(=O)[C@H](C(C)C)NC(=O)[C@H](Cc2ccc(O)cc2)NC1=O [WL6] ({CH2CO}-YTWTWN[NMeS]AFLYVYCT-NH2; thioether N-14),36,,,
YIWIWPGYVIYCT (modifications not checked) [WL2],,2540,157,
YVIWIWPNHFYYCT (modifications not checked) [WL4],,660,42,
YFIIVGTWTWTWSCT (modifications not checked) [WD1],,850,15,
